Data set [1] is described as follows: Turbidity of 1% ACH solution at varying alkalinity (nephelometric turbidimeter). The data set is classed as physicochemical. As to conditions: 1% solution of ACH. On the procedure:
A 1% solution of ACH having initial pH of 4.6 was subjected to varying alkalinity by using sodium hydroxide solution, and the turbidity of the solution was measured at varying pH levels using a nephelometric turbidimeter.

The nature of data set [2]: pH and turbidity of 1% soap solution after adding ACH directly or through water-in-oil emulsion. The class given is physicochemical. As to conditions: 60 mg ACH directly added to 1% soap solution (Control). Here is the method: A 1% soap solution was prepared by dissolving the soap in distilled water at 70° C., and then cooling the solution to ambient temperature. The formulation of the soap used is given below: […]
To ascertain the stability of the ACH incorporated in the dispersed phase such as the water-in-oil emulsion in accordance with the invention prepared under Example 2b, the soap solution obtained under Example 2a was used, and the effect of direct addition of ACH and the ACH in the water-in-oil emulsion (Example 2b) of the invention was studied.
For the purpose of the above study, two separate batches of the same soap solution of Example 2a was taken. In one batch 60 mg ACH was directly added, and in the other batch 100 mg ACH was added through the water-in-oil emulsion system as per Example 2b above. The pH levels and the turbidity of the respective solutions containing the active ACH directly introduced (Control) and the active ACH in the water-in-oil emulsion (Example 2b) were measured, and the results are reproduced hereunder in Table II.

Aluminum Chlorohydrate [ACH]: the Turbidity in data set [1] (pH 4.6 (initial pH)) is reported as 1.3 NTU; in data set [1] (pH 5.7 (sodium hydroxide)) it was 2.6 NTU; in data set [1] (pH 7.5 (sodium hydroxide)), 504 NTU; in data set [1] (pH 9.6 (sodium hydroxide)) it was 522 NTU; in data set [1] (pH 10.6 (sodium hydroxide)), 884 NTU; in data set [2] (soap solution alone 205), 950. Further, the pH in data set [2] (soap solution alone 10.14) worked out at 9.89.

These data come from patent US20060003907A1, “Detergent composition with benefit agents” (Unilever Home & Personal Care USA, Division of Conopco, Inc., priority 2003, published 2006).
